Assay results as given in patent publication US11584747B2, “Substituted pyridopyrimidinonyl compounds useful as T cell activators” (BRISTOL-MYERS SQUIBB COMPANY, priority 2019, dated 2023).
Like-named read-outs stand apart in the source and are kept apart here.

Assays:
human DGKα = human DGKα (Homo sapiens (Human), UniProt P23743); experiment: DGKα ADPGLO assay (detergent/lipid micelle substrate); format: biochemical
Protocol: DGK Alpha ADPGLO (Truncated) IC50 (uM)
The detergent/lipid micelle was prepared by combining 15 g phosphatidylserine (Avanti 840035P) and 1 g diacylglycerol (8008110) and dissolving into 150 mL chloroform in a 2 L round bottom flask. Chloroform was removed under high vacuum by rotary evaporation. […] The lipid/detergent solution was split into 5 mL aliquots and stored at −80° C.

human DGKζ = human DGKζ (Homo sapiens (Human), UniProt Q13574); experiment: DGKζ LIPGLO assay (extruded liposome substrate, ADP-Glo luminescence); format: biochemical
[1] = ADPGLO assay, read-out: DGK alpha ADPGLO IC50
[2] = liposome (LIPGLO) assay, read-out: DGK zeta (liposome assay) IC50
[3] = truncated DGK alpha, read-out: DGK alpha ADPGLO (Truncated) IC50
[4] = liposome assay, read-out: DGK zeta LIPGLO IC50

Sequence of human DGKζ (Q13574 other isoform, or with tags, fused parts or gaps): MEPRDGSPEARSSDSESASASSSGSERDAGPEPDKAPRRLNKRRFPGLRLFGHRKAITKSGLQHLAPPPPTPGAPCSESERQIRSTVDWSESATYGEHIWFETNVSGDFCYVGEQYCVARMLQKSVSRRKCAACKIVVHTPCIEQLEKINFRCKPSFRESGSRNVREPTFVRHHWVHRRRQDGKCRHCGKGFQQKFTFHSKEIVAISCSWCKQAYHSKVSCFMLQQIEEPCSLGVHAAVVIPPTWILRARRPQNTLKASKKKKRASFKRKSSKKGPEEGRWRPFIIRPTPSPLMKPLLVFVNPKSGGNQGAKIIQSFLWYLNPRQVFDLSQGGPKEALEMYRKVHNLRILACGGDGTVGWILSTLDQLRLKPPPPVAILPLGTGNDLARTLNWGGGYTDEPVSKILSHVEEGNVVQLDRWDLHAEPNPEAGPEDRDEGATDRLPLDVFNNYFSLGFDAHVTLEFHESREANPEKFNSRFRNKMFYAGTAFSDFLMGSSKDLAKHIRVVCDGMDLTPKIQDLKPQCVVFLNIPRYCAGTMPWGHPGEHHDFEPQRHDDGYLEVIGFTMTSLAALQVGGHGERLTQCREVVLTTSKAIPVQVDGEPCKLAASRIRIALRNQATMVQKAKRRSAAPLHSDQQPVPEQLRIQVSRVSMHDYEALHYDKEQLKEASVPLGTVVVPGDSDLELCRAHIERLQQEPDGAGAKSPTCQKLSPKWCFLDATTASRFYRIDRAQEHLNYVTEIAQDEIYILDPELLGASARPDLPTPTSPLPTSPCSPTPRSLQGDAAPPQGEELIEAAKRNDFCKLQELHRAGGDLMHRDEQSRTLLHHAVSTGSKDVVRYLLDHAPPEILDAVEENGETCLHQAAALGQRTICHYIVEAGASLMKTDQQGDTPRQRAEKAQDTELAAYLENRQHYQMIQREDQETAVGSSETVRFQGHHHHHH
Sequence of human DGKα (P23743 whole entry, looked up, the tested form may be a part): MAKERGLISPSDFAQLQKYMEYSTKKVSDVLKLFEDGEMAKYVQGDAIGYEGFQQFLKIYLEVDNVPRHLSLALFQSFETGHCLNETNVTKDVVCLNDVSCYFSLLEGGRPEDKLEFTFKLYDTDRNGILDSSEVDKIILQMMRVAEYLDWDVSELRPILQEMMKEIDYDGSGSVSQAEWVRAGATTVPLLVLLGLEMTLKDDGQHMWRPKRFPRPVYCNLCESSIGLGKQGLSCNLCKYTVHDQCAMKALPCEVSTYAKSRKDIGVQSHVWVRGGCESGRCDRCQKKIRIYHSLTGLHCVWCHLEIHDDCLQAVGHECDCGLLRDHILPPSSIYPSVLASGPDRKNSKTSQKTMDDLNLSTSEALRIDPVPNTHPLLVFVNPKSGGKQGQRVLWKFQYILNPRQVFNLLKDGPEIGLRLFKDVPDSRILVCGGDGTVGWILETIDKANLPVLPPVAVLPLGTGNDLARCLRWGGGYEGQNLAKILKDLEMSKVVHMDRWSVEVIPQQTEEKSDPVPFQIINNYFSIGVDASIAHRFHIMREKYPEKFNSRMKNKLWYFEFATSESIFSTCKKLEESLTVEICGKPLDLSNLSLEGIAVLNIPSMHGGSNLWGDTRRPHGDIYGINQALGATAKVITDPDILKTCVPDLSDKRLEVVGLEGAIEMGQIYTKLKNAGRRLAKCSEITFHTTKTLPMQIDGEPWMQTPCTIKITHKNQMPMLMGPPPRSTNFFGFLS

SMILES | IC50 (human DGKα; [1]) | IC50 (human DGKζ; [2]) | IC50 (human DGKα; [3]) | IC50 (human DGKζ; [4])
CCC(c1ccc(C2CC2)cc1F)N1C[C@H](C)N(c2nc(=O)n(C)c3ccc(C#N)nc23)C[C@H]1C (stereo partly drawn) [Example 381, 4-((2S,5R)-4-(1-(4-cyclopropyl-2-fluorophenyl)propyl)-2,5-dimethylpiperazin-1-yl)-1-methyl-2-oxo-1,2-dihydropyrido[3,2-d]pyrimidine-6-carbonitrile] | 0.85 µM | 3.41 µM |  | 
CC[C@@H]1CN(c2nc(=O)n(C)c3ccc(C#N)nc23)[C@@H](C)CN1C(c1nnc(C2CC2)o1)C(C)C (single isomer, unassigned) [Example 368] | 1.17 µM | 2.25 µM |  | 
CCC(c1ccc(OC2CC2)cc1)N1C[C@H](C)N(c2nc(=O)n(C)c3ccc(C#N)nc23)C[C@H]1CC (stereo partly drawn) [Example 312, 4-((2S,5R)-4-(1-(4-cyclopropoxyphenyl)propyl)-5-ethyl-2-methylpiperazin-1-yl)-1-methyl-2-oxo-1,2-dihydropyrido[3,2-d]pyrimidine-6-carbonitrile] | 0.6 µM | 0.87 µM |  | 
CCC(C1CC(F)(F)C1)N1C[C@H](C)N(c2nc(=O)n(C)c3ccc(C#N)nc23)C[C@H]1C (stereo partly drawn) [Example 457, 4-((2S,5R)-4-(1-(3,3-difluorocyclobutyl)propyl)-2,5-dimethylpiperazin-1-yl)-1-methyl-2-oxo-1,2-dihydropyrido[3,2-d]pyrimidine-6-carbonitrile] | 4.01 µM | 1.05 µM |  | 
CCC(c1ccc(C2CC2)cc1)N1C[C@H](C)N(c2nc(=O)n(C)c3ccc(C#N)nc23)C[C@H]1CC (stereo partly drawn) [Example 300, 4-((2S,5R)-4-(1-(4-cyclopropylphenyl)propyl)-5-ethyl-2-methylpiperazin-1-yl)-1-methyl-2-oxo-1,2-dihydropyrido[3,2-d]pyrimidine-6-carbonitrile] |  |  | 0.013 µM | 0.022 µM
CC[C@@H]1CN(c2nc(=O)n(C)c3ccc(C#N)nc23)[C@@H](CC)CN1Cc1ccc(C2CC2)cc1F [Example 242, 4-((2S,5R)-4-(4-cyclopropyl-2-fluorobenzyl)-2,5-diethylpiperazin-1-yl)-1-methyl-2-oxo-1,2-dihydropyrido[3,2-d]pyrimidine-6-carbonitrile] |  |  | 0.26 µM | 0.19 µM
CCC(C1CC1)N1C[C@H](C)N(c2nc(=O)n(C)c3ccc(C#N)nc23)C[C@H]1C (stereo partly drawn) [Example 455, 4-((2S,5R)-4-(1-cyclopropylpropyl)-2,5-dimethylpiperazin-1-yl)-1-methyl-2-oxo-1,2-dihydropyrido[3,2-d]pyrimidine-6-carbonitrile] | 5.12 µM | 7.55 µM |  | 
CC[C@H]1CN(C(C)c2ccc(C(F)(F)F)cc2)[C@H](CC)CN1c1nc(=O)n(C)c2ccc(OC(F)F)nc12 (stereo partly drawn) [Example 444, 4-((2S,5R)-2,5-Diethyl-4-(1-(4-(trifluoromethyl)phenyl)ethyl)piperazin-1-yl)-6-(difluoromethoxy)-1-methylpyrido[3,2-d]pyrimidin-2(1H)-one] | 0.4 µM | 0.18 µM |  | 
CC[C@H]1CN(C(c2ccc(F)cc2)c2cccc(C(F)F)n2)[C@H](CC)CN1c1nc(=O)n(C)c2ccc(C#N)nc12 (stereo partly drawn) [Example 257, 4-((2S,5R)-4((6-(difluoromethyl)pyridin-2-yl)(4-fluorophenyl)methyl)-2,5-diethylpiperazin-1-yl)-1-methyl-2-oxo-1,2-dihydropyrido[3,2-d]pyrimidine-6-carbonitrile] |  |  | 0.17 µM | 0.25 µM
CCC(c1ccc(Br)cc1)N1C[C@H](C)N(c2nc(=O)n(C)c3ccc(C#N)nc23)C[C@H]1CC (stereo partly drawn) [Example 321, 4-((2 S,5R)-4-(1-(4-bromophenyl)propyl)-5-ethyl-2-methylpiperazin-1-yl)-1-methyl-2-oxo-1,2-dihydropyrido[3,2-d]pyrimidine-6-carbonitrile] | 0.01 µM | 0.038 µM |  | 
CCOc1ccc(CN2C[C@H](C)N(c3nc(=O)n(C)c4ccc(C#N)nc34)C[C@H]2CC)cc1 [Example 310, 4-((2S,5R)-4-(4-ethoxybenzyl)-5-ethyl-2-methylpiperazin-1-yl)-1-methyl-2-oxo-1,2-dihydropyrido[3,2-d]pyrimidine-6-carbonitrile] | 0.077 µM | 0.28 µM |  | 
CC[C@@H]1CN(c2nc(=O)n(C)c3ccc(C#N)nc23)[C@@H](C)CN1C(C)c1ccc(C(F)(F)F)c(CN(C)C)c1 (stereo partly drawn) [Example 352, 4-((2S,5R)-4-(1-(3-((dimethylamino)methyl)-4-(trifluoromethyl)phenyl)ethyl)-5-ethyl-2-methylpiperazin-1-yl)-1-methyl-2-oxo-1,2-dihydropyrido[3,2-d]pyrimidine-6-carbonitrile] | 14.9 µM | 2.72 µM |  | 
CCC(c1ccc(OC(C)C)cc1)N1C[C@H](CC)N(c2nc(=O)n(C)c3ccc(C#N)nc23)C[C@H]1CC (stereo partly drawn) [Example 235, 4-((2S,5R)-2,5-diethyl-4-(1-(4-isopropoxyphenyl)propyl)piperazin-1-yl)-1-methyl-2-oxo-1,2-dihydropyrido[3,2-d] pyrimidine-6-carbonitrile] |  |  | 0.43 µM | 0.78 µM
CCC(C1CC(F)(F)C1)N1C[C@H](C)N(c2nc(=O)n(C)c3ccc(C#N)nc23)C[C@H]1C (stereo partly drawn) [Example 458, 4-((2S,5R)-4-(1-(3,3-difluorocyclobutyl)propyl)-2,5-dimethylpiperazin-1-yl)-1-methyl-2-oxo-1,2-dihydropyrido[3,2-d]pyrimidine-6-carbonitrile] | 7.74 µM | 6.47 µM |  | 
CCC(c1ccc(OC2CC2)cc1)N1C[C@H](C)N(c2nc(=O)n(C)c3ccc(C#N)nc23)C[C@H]1CC (stereo partly drawn) [Example 311, 4-((2S,5R)-4-(1-(4-cyclopropoxyphenyl)propyl)-5-ethyl-2-methylpiperazin-1-yl)-1-methyl-2-oxo-1,2-dihydropyrido[3,2-d]pyrimidine-6-carbonitrile] | 0.013 µM | 0.006 µM |  | 
CCC(c1ccc(C2CC2)cc1)N1C[C@H](C)N(c2nc(=O)n(C)c3ccc(C#N)nc23)C[C@H]1C (stereo partly drawn) [Example 378, 4-((2S,5R)-4-(1-(4-cyclopropylphenyl)propyl)-2,5-dimethylpiperazin-1-yl)-1-methyl-2-oxo-1,2-dihydropyrido[3,2-d]pyrimidine-6-carbonitrile] | 0.16 µM | 0.15 µM |  | 
CCC(c1ccc(Br)cc1)N1C[C@H](C)N(c2nc(=O)n(C)c3ccc(C#N)nc23)C[C@H]1CC (stereo partly drawn) [Example 322, 4-((2 S,5R)-4-(1-(4-bromophenyl)propyl)-5-ethyl-2-methylpiperazin-1-yl)-1-methyl-2-oxo-1,2-dihydropyrido[3,2-d]pyrimidine-6-carbonitrile] | 0.007 µM | 0.76 µM |  | 
CC[C@H]1CN(C(C)c2ccc(C(F)(F)F)cc2)[C@H](CC)CN1c1nc(=O)n(C)c2ccc(COC)nc12 (single isomer, unassigned) [Example 424] | 114 µM | 4.59 µM |  | 
CCC(c1ccc(C2CC2)cc1)N1C[C@H](C)N(c2nc(=O)n(C)c3ccc(C#N)nc23)C[C@H]1C (stereo partly drawn) [Example 379, 4-((2S,5R)-4-(1-(4-cyclopropylphenyl)propyl)-2,5-dimethylpiperazin-1-yl)-1-methyl-2-oxo-1,2-dihydropyrido[3,2-d]pyrimidine-6-carbonitrile] | 0.45 µM | 3.6 µM |  | 
